Source: patent publication US5183883A, “Conjugate of adriamycin and cyclodextrin” (Mercian Corporation, priority 1990, dated 1993)
Converted amounts (≈) assume the structure as drawn. Structures can show the parent of a compound that is named as a salt. Where two headings read alike, the source gives them in different places.

Tests used:
L1210 leukemia = test: Test of anti-cancer activity to L1210 leukemia mice; type: in vivo, CDF1 mice; settings: i.p., 10 days; for Survived mice/test mice: observed 60 days
Method: 1×10^5 L1210 leukemia cells were inoculated into CDF1 mice intraperitoneally, and 24 hours later, the aqueous solution of the compound of this invention was intraperitoneally administered successively over 10 days. Test groups, each consisting of 6 mice, were fed and observed for 60 days, and percent prolongation of life (T/C; %) was found.

mouse leukemia cells = test: Cytotoxicity test; settings: for Cytotoxicity, IC50: 48 hours, 37° C., RPMI1640 with 10% horse serum, trypan blue
Method: 5×10^4 cells/ml of mouse leukemia cells were inoculated in a RPMI1640 culture medium containing 10% horse serum, and the compound of the present invention was added to this such that the final concentration became 0.001 to 10.0 μg/ml. Cultivation was conducted in a carbon dioxide gas incubator (air containing 5% carbon dioxide gas) at 37° C. for 48 hours.

[1] = intravenous injection in mice; Collection of Medicaments in Japan, 1989; cited from earlier work
[2] = Sustained release test (adriamycin liberated in phosphoric acid buffer physiological saline); type: physicochemical; settings: 1 mg in 0.0067 M phosphoric acid buffer physiological saline, initial pH=7.36-7.37, 37° C., HPLC
Method: One milligram of each of the adriamycin derivatives obtained in Examples 1, 2, 3, 4, 5 and 6 to be described later was dissolved in 0.0067 M phosphoric acid buffer physiological saline solution made by Bioproducts, Inc. (initial pH=7.36-7.37), and the solution was kept at 37° C. The amount of adriamycin liberated in the solution was analyzed by HPLC [column=YMC Pack A-312 S-5 120A ODS; mobile phase=0.05M ammonium formate buffer (pH=4.0):- acetonitrile=7:4, flow rate=1 ml/min; measuring wavelength=254 nm; retention time of adriamycin under the present conditions=3.8 minutes].
Consequently, a 50 % released time of adriamycin from the adriamycin derivatives is as follows, and sustained release was confirmed.

Toxicity test LD50 = type: in vivo; settings: mice, intravenously administered once
Text: LD50 given when the adriamycin derivatives of this invention were intravenously administered once in mice is as follows.

[3] = 9.77 mg/kg/day (2.5 as adriamycin)
[4] = 19.53 mg/kg/day (5.0 as adriamycin)
[5] = 39.06 mg/kg/day (10.0 as adriamycin)
[6] = 78.13 mg/kg/day (20.0 as adriamycin)
[7] = 156.25 mg/kg/day (40.0 as adriamycin)
[8] = 9.54 mg/kg/day (2.5 as adriamycin)
[9] = 13.36 mg/kg/day (3.5 as adriamycin)
[10] = 19.08 mg/kg/day (5.0 as adriamycin)
[11] = 26.72 mg/kg/day (7.0 as adriamycin)
[12] = 38.17 mg/kg/day (10.0 as adriamycin)

With `COc1cccc2c1C(=O)c1c(O)c3c(c(O)c1C2=O)C[C@@](O)(C(=O)CO)C[C@@H]3O[C@H]1C[C@H](N)[C@H](O)[C@H](C)O1` [Adriamycin hydrochloride, reference compound] the “Anti-cancer activity, T/C (%)” value (L1210 leukemia; 0.31 mg/kg/day) was 170%, the Survived mice/test mice (L1210 leukemia; 0.31 mg/kg/day) was 0/6 and the “Anti-cancer activity, T/C (%)” value (L1210 leukemia; 0.63 mg/kg/day) was 218%. The Survived mice/test mice (L1210 leukemia; 0.63 mg/kg/day) was 0/6, the “Anti-cancer activity, T/C (%)” value (L1210 leukemia; 1.25 mg/kg/day) was 255% and the Survived mice/test mice (L1210 leukemia; 1.25 mg/kg/day) was 0/6. For the same compound, the “Anti-cancer activity, T/C (%)” value (L1210 leukemia; 2.50 mg/kg/day) was 177%, the Survived mice/test mice (L1210 leukemia; 2.50 mg/kg/day) was 0/6 and the “Anti-cancer activity, T/C (%)” value (L1210 leukemia; 5.00 mg/kg/day) was 132%. For the same compound, the Survived mice/test mice (L1210 leukemia; 5.00 mg/kg/day) was 0/6.
For `COc1cccc2c1C(=O)c1c(O)c3c(c(O)c1C2=O)C[C@@](O)(C(=O)CO)C[C@@H]3O[C@H]1C[C@H](N)[C@H](O)[C@H](C)O1` [Adriamycin, adriamycin], the IC50 (mouse leukemia cells; Mus musculus, 48 h, read-out: Cytotoxicity, IC50) is listed as 0.058 µg/mL (≈ 0.107 µM) and the LD50 [1] is listed as 9.8 mg/kg.
For `COc1cccc2c1C(=O)c1c(O)c3c(c(O)c1C2=O)C[C@@](O)(C(=O)COC(=O)C1CCCCC1C(=O)OC[C@H]1O[C@@H]2O[C@H]4[C@H](O)[C@@H](O)[C@@H](O[C@H]5[C@H](O)[C@@H](O)[C@@H](O[C@H]6[C@H](O)[C@@H](O)[C@@H](O[C@H]7[C@H](O)[C@@H](O)[C@@H](O[C@H]8[C@H](O)[C@@H](O)[C@@H](O[C@H]9[C@H](O)[C@@H](O)[C@@H](O[C@H]%10[C@H](O)[C@@H](O)[C@@H](O[C@H]1[C@H](O)[C@H]2O)O[C@@H]%10CO)O[C@@H]9CO)O[C@@H]8CO)O[C@@H]7CO)O[C@@H]6CO)O[C@@H]5CO)O[C@@H]4CO)C[C@@H]3O[C@H]1C[C@H](N)[C@H](O)[C@H](C)O1` (some centres unmarked) [Example 6-ACC, adriamycin (14-position)-ciscyclohexanedicarboxylic acid-(6-position) γ-cyclodextrin conjugate], the “50 % released time of adriamycin from the adriamycin derivatives” value (shortened to “50 % released time of adriamycin”) [2] was over 70 h and the “Cytotoxicity, IC50” value (mouse leukemia cells) was 2.07 µg/mL.
With `COc1cccc2c1C(=O)c1c(O)c3c(c(O)c1C2=O)C[C@@](O)(C(=O)COC(=O)c1cc2ccccc2cc1C(=O)OC[C@H]1O[C@@H]2O[C@H]4[C@H](O)[C@@H](O)[C@@H](O[C@H]5[C@H](O)[C@@H](O)[C@@H](O[C@H]6[C@H](O)[C@@H](O)[C@@H](O[C@H]7[C@H](O)[C@@H](O)[C@@H](O[C@H]8[C@H](O)[C@@H](O)[C@@H](O[C@H]9[C@H](O)[C@@H](O)[C@@H](O[C@H]%10[C@H](O)[C@@H](O)[C@@H](O[C@H]1[C@H](O)[C@H]2O)O[C@@H]%10CO)O[C@@H]9CO)O[C@@H]8CO)O[C@@H]7CO)O[C@@H]6CO)O[C@@H]5CO)O[C@@H]4CO)C[C@@H]3O[C@H]1C[C@H](N)[C@H](O)[C@H](C)O1` [Example 6-ANC, adriamycin (14-position)-naphthalenedicarboxylic acid-(6-position) γ-cyclodextrin conjugate] the “50 % released time of adriamycin” value [2] was “about 65 hours” and the “Cytotoxicity, IC50” value (mouse leukemia cells) was 0.79 µg/mL.
In the case of `COc1cccc2c1C(=O)c1c(O)c3c(c(O)c1C2=O)C[C@@](O)(C(=O)COC(=O)c1ccccc1C(=O)OC[C@H]1O[C@@H]2O[C@H]4[C@H](O)[C@@H](O)[C@@H](O[C@H]5[C@H](O)[C@@H](O)[C@@H](O[C@H]6[C@H](O)[C@@H](O)[C@@H](O[C@H]7[C@H](O)[C@@H](O)[C@@H](O[C@H]8[C@H](O)[C@@H](O)[C@@H](O[C@H]9[C@H](O)[C@@H](O)[C@@H](O[C@H]%10[C@H](O)[C@@H](O)[C@@H](O[C@H]1[C@H](O)[C@H]2O)O[C@@H]%10CO)O[C@@H]9CO)O[C@@H]8CO)O[C@@H]7CO)O[C@@H]6CO)O[C@@H]5CO)O[C@@H]4CO)C[C@@H]3O[C@H]1C[C@H](N)[C@H](O)[C@H](C)O1` [Example 6-APC, adriamycin (14-position)-phthalic acid-(6-position) γ-cyclodextrin conjugate], the “50 % released time of adriamycin” value [2] is reported as “about 45 hours” and the “Cytotoxicity, IC50” value (mouse leukemia cells) is reported as 0.49 µg/mL.
In the case of `COc1cccc2c1C(=O)c1c(O)c3c(c(O)c1C2=O)C[C@@](O)(C(=O)COC(=O)CCC(=O)OC[C@H]1O[C@@H]2O[C@H]4[C@H](O)[C@@H](O)[C@@H](O[C@H]5[C@H](O)[C@@H](O)[C@@H](O[C@H]6[C@H](O)[C@@H](O)[C@@H](O[C@H]7[C@H](O)[C@@H](O)[C@@H](O[C@H]8[C@H](O)[C@@H](O)[C@@H](O[C@H]9[C@H](O)[C@@H](O)[C@@H](O[C@H]%10[C@H](O)[C@@H](O)[C@@H](O[C@H]1[C@H](O)[C@H]2O)O[C@@H]%10CO)O[C@@H]9CO)O[C@@H]8CO)O[C@@H]7CO)O[C@@H]6CO)O[C@@H]5CO)O[C@@H]4CO)C[C@@H]3O[C@H]1C[C@H](N)[C@H](O)[C@H](C)O1` [Example 6-ASC, adriamycin (14-position)-succinic acid (6-position) γ-cyclodextrin conjugate], the “50 % released time of adriamycin” value [2] is reported as “about 3 hours” and the “Cytotoxicity, IC50” value (mouse leukemia cells) is reported as 0.21 µg/mL.
In the case of “adriamycin-phthalic acid-γ-cyclodextrin conjugate [APC]”, the “50 % released time of adriamycin” value [2] is reported as “about 20 hours”, the “Cytotoxicity, IC50” value (mouse leukemia cells) is reported as 0.32 µg/mL and the “Anti-cancer activity, T/C (%)” value (L1210 leukemia; [3]) is reported as 164%. The Survived mice/test mice (L1210 leukemia; [3]) was 0/6, the “Anti-cancer activity, T/C (%)” value (L1210 leukemia; [4]) was 234% and the Survived mice/test mice (L1210 leukemia; [4]) was 0/6. For the same compound, the “Anti-cancer activity, T/C (%)” value (L1210 leukemia; [5]) was 468%, the Survived mice/test mice (L1210 leukemia; [5]) was 2/6 and the “Anti-cancer activity, T/C (%)” value (L1210 leukemia; [6]) was 475%. For the same compound, the Survived mice/test mice (L1210 leukemia; [6]) was 0/6, the “Anti-cancer activity, T/C (%)” value (L1210 leukemia; [7]) was 143% and the Survived mice/test mice (L1210 leukemia; [7]) was 0/6. For the same compound, the LD50 (Toxicity test LD50; as derivative) was 555 mg/kg and the LD50 as adriamycin (Toxicity test LD50; calculated as adriamycin) was 147 mg/kg as adriamycin.
With “adriamycin-succinic acid-γ-cyclodextrin conjugate [ASC]” the “Anti-cancer activity, T/C (%)” value (L1210 leukemia; [8]) was 207%, the Survived mice/test mice (L1210 leukemia; [8]) was 0/6 and the “Anti-cancer activity, T/C (%)” value (L1210 leukemia; [9]) was 545%. For the same compound, the Survived mice/test mice (L1210 leukemia; [9]) was 3/6, the “Anti-cancer activity, T/C (%)” value (L1210 leukemia; [10]) was 552% and the Survived mice/test mice (L1210 leukemia; [10]) was 3/6. The “Anti-cancer activity, T/C (%)” value (L1210 leukemia; [11]) was 193%, the Survived mice/test mice (L1210 leukemia; [11]) was 0/6 and the “Anti-cancer activity, T/C (%)” value (L1210 leukemia; [12]) was 159%. For the same compound, the Survived mice/test mice (L1210 leukemia; [12]) was 0/6.
